Test results as given in US8552002B2 (Novartis AG, priority 2004, dated 2013).

Legend:
Format in all cases: biochemical
[1] = target: T1, Tek (Homo sapiens, UniProt Q02763); experiment: Recombinant GST-Tek (Tie-2) tyrosine kinase assay (33P into poly(Glu,Tyr)); details: Examples 1 to 169
T1 construct: amino acids 773-1124 of the cytoplasmic kinase domain of human Tek, N-terminally fused to GST; made in house; host or cells: Sf9 insect cells (baculovirus)
In short: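 Read-out is filter-bound 33P in poly(Glu,Tyr) 4:1 (10 μg/mL) after 30 min at ambient temperature with 4.0 μM ATP. Enzyme: 150 ng human GST-Tek (aa 773-1124) from insect cells, in Tris pH 7.5 with Mn2+/Mg2+ and vanadate. IC50 fitted linearly over four concentrations, usually 0.01-10 μM.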

[2] = target: T2, FGFR3 (K650E) (Homo sapiens, UniProt P22607, K650E); experiment: Recombinant GST-FGFR-3-K650E tyrosine kinase assay (33P into poly(Glu,Tyr)); details: 10 μM; Examples 1 to 169; read-out: FGFR3 (K650E) inhibition at 10 μM
T2 construct: amino acids 411-806 of the cytoplasmic domain of human FGFR-3, N-terminally fused to GST; made in house; host or cells: Sf9 insect cells (baculovirus)
T2 sequence (P22607 411-806 K650E): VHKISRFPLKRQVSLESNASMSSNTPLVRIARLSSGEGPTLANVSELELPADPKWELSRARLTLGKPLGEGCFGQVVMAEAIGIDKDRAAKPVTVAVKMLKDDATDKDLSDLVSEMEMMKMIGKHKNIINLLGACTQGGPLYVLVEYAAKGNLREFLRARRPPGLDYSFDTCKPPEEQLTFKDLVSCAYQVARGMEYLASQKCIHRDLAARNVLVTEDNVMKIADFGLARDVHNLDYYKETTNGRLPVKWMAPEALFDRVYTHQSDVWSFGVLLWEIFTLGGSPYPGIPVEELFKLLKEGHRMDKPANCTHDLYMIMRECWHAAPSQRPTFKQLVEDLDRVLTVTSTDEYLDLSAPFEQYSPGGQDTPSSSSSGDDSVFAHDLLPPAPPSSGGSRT

[3] = target: T3, KDR (Homo sapiens, UniProt P35968); experiment: Inhibitory activity against KDR (VEGF-R2), in vitro data of Examples 170 and 207; details: 10 μM; Examples 1 to 169; read-out: KDR inhibition at 10 μM
T3 construct: expressed in transfected cells; host or cells: CHO cells
T3 sequence (P35968 20-1356): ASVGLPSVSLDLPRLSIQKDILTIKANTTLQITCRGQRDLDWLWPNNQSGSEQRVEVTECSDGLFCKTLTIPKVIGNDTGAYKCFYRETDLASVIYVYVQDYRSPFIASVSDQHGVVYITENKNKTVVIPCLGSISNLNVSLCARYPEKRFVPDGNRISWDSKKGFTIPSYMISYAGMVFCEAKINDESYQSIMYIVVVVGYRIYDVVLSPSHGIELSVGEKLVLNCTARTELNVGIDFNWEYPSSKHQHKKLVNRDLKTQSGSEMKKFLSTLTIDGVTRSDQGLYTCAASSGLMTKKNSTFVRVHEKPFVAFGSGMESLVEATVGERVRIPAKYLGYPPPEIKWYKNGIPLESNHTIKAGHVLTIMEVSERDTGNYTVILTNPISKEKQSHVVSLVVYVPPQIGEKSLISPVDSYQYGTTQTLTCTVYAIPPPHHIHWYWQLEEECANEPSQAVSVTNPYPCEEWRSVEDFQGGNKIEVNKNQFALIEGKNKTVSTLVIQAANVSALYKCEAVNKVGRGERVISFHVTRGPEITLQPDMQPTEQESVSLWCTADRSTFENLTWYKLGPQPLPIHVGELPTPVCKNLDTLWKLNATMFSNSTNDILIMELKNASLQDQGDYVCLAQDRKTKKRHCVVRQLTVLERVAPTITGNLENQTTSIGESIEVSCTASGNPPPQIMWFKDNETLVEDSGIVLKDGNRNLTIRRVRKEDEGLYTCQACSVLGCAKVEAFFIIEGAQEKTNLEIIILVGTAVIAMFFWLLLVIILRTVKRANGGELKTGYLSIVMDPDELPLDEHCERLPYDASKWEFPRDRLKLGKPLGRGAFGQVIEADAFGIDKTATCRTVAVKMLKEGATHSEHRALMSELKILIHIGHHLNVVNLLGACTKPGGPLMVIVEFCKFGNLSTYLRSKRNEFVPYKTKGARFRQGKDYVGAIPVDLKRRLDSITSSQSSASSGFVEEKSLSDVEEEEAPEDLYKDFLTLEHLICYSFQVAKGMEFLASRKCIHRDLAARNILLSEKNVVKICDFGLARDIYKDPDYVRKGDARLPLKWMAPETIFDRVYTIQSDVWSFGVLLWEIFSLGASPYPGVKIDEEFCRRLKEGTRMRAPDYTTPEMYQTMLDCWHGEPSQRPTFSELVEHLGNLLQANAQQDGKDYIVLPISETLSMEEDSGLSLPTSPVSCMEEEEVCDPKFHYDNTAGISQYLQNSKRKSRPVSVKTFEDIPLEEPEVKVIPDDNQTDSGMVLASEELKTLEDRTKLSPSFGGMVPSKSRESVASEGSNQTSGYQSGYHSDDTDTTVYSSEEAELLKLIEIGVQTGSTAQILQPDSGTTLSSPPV
In short: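 KDR tyrosine phosphorylation detected by luminescence after overnight 4° C capture of 20 μg lysate protein with PY20:AP antibody. Lysates came from cells given compound for 2 h at 37° C, then final 20 ng/ml VEGF for 5 min; compound-free medium as control.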

T1 sequence (Q02763 773-1124): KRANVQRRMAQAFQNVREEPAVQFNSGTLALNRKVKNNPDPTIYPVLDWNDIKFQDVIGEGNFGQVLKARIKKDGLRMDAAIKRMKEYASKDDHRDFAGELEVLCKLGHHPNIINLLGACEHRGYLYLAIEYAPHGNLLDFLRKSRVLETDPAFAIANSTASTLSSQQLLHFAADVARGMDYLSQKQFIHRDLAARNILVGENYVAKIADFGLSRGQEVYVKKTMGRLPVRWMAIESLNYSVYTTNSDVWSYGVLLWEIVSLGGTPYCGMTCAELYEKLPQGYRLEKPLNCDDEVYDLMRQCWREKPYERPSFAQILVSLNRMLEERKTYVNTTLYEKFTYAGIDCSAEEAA

inhibition at 10 µM [1] [%] | inhibition at 10 µM [2] [%] | inhibition at 10 µM [3] [%] | SMILES
12 to 100 | 27 to 100 | 67 to 100 | CCN(C(=O)Nc1c(Cl)c(OC)cc(OC)c1Cl)c1cc(Nc2ccc(C(=O)N3CCN(C)CC3)cc2)ncn1 [Example 64, 3-(2,6-Dichloro-3,5-dimethoxy-phenyl)-1-ethyl-1-{6-[4-(4-methyl-piperazine-1-carbonyl)-phenylamino]-pyrimidin-4-yl}-urea]
12 to 100 | 27 to 100 | 67 to 100 | COc1ccc(NC(=O)Nc2cc(Nc3cccc(N4CCN(C)CC4)c3)ncn2)cc1OC [Example 31, 1-(3,4-Dimethoxy-Phenyl)-3-{6-[3-(4-methyl-piperazin-1-yl)-phenyl-amino]-pyrimidin-4-yl}-urea]
12 to 100 | 27 to 100 | 67 to 100 | COc1cc(NC(=O)N(CCN2CCN(C)CC2)c2cc(Nc3ccccc3)ncn2)c(Cl)c(OC)c1 [Example 57, 3-(2-Chloro-3,5-dimethoxy-phenyl)-1-[2-(4-methyl-piperazin-1-yl)-ethyl]-1-(6-phenylamino-pyrimidin-4-yl)-urea]
12 to 100 | 27 to 100 | 67 to 100 | CN(C(=O)Nc1c(Cl)cccc1Cl)c1cc(Nc2cccc(C(F)(F)F)c2)ncn1 [Example 113, 3-(2,6-Dichloro-phenyl)-1-methyl-1-[6-(3-trifluoromethyl-phenylamino)-pyrimidin-4-yl]-urea]
12 to 100 | 27 to 100 | 67 to 100 | COc1cc(NC(=O)Nc2cc(Nc3ccc(N4CCN(C)CC4)cc3)ncn2)cc(OC)c1 [Example 18, 1-(3,5-Dimethoxy-phenyl)-3-{6-[4-(4-methyl-piperazin-1-yl)-phenyl-amino]-pyrimidin-4-yl}-urea]
12 to 100 | 27 to 100 | 67 to 100 | CCN(CC)c1ccc(Nc2cc(N(C)C(=O)Nc3c(Cl)cccc3Cl)ncn2)cc1 [Example 110, 3-(2,6-Dichloro-phenyl)-1-[6-(4-diethylamino-phenylamino)-pyrimidin-4-yl]-1-methyl-urea]
12 to 100 | 27 to 100 | 67 to 100 | COc1ccc(Cl)c(NC(=O)N(C)c2cc(Nc3ccc(C(=O)N4CCN(C)CC4)cc3)ncn2)c1Cl [Example 61, 3-(2,6-Dichloro-3-methoxy-phenyl)-1-methyl-1-{6-[4-(4-methyl-piperazine-1-carbonyl)-phenylamino]-pyrimidin-4-yl}-urea]
12 to 100 | 27 to 100 | 67 to 100 | COc1cc(OC)c(Cl)c(NC(=O)Nc2cc(Nc3ccc(CN(C)C)c(C(F)(F)F)c3)ncn2)c1Cl [Example 159, 1-(2,6-Dichloro-3,5-dimethoxy-phenyl)-3-[6-(4-dimethylaminomethyl-3-trifluoromethyl-phenylamino)-pyrimidin-4-yl]-urea]
12 to 100 | 27 to 100 | 67 to 100 | COc1cc(OC)c(Cl)c(NC(=O)N(C)c2cc(Nc3ccc(N4CCN(C(C)C)CC4)cc3)ncn2)c1Cl [Example 163, 3-(2,6-Dichloro-3,5-dimethoxy-phenyl)-1-{6-[4-(4-isopropyl-piperazin-1-yl)-phenylamino]-pyrimidin-4-yl}-1-methyl-urea]
12 to 100 | 27 to 100 | 67 to 100 | CN1CCN(c2ccc(Nc3cc(NC(=O)Nc4cc(C(F)(F)F)cc(C(F)(F)F)c4)ncn3)cc2)CC1 [Example 20, 1-(3,5-Bis-trifluoromethyl-phenyl)-3-{6-[4-(4-methyl-piperazin-1-yl)-phenylamino]-pyrimidin-4-yl}-urea]
12 to 100 | 27 to 100 | 67 to 100 | COc1cc(NC(=O)Nc2cc(Nc3cccc(Cl)c3)ncn2)cc(OC)c1OC [Example 136, 1-[6-(3-Chloro-phenylamino)-pyrimidin-4-yl]-3-(3,4,5-trimethoxy-phenyl)-urea]
